The target of series [1] is recombinant RRM1/RRM2 complex (Homo sapiens (Human), UniProt P31350). Nature of the series: in vitro holoenzyme-based RR assay, [3H]CDP reduction by HPLC. The conditions noted are these: for inhibition of native RRM1/RRM2 activity in vitro screen: screen of top 80 virtual screening candidates. It counts as biochemical. The text has this:
Compounds that docked into the ligand binding pocket were identified using the TRIPOS FlexX docking tool and ranked using an embedded consensus docking score. […] The assay utilized recombinant RRM1/RRM2 or RRM1/RRM2 complex and measured [^3H]CDP reduction activity (i.e., CDP to dCDP) by HPLC.

For series [2], the system named is normal fibroblast NHDF cells. Nature of the series: MTT cytotoxicity assay. The format is cell-based, human. The conditions noted are these: 72 hours. The method, then: (§1) The in vitro cytotoxicity of COH4 and COH20 towards human leukemia REH and MOLT-4 cells, human prostate cancer LNCaP cells, human oropharyngeal cancer KB cells, and normal fibroblast NHDF cells was evaluated using an MTT assay. 5,000 cells were seeded on six-well plates for 72 hours with various concentrations of drug. COH20 was cytotoxic to the cancer cell lines at less than 10 μM, while causing less cytotoxicity to normal cells than 3-AP.

Another series relates to KBMDR. Nature of the series: in vitro cytotoxicity assay, multidrug resistant clone. The format is cell-based, human.
Series [3] has as its system human leukemia MOLT-4 cells. Nature of the series: MTT cytotoxicity assay. It counts as cell-based. The method, then: as §1
(§2) The in vitro cytotoxicity of COH29 towards a panel of human cancer cell lines was tested using the MTT assay described above.

For series [4], the system named is human oropharyngeal cancer KB cells. Nature of the series: MTT cytotoxicity assay. The format is cell-based. The note with it: 72 hours. The method, then: as §1
The next series relates to human leukemia REH cells. Nature of the series: MTT cytotoxicity assay. It counts as cell-based. The conditions noted are these: 72 hours. The method, then:
as §1

Series [5] concerns human prostate cancer LNCaP cells. Nature of the series: MTT cytotoxicity assay. The conditions noted are these: 72 hours. It counts as cell-based. How it is done:
as §1

Another series relates to Ovarian Cancer OV 90. Nature of the series: MTT cytotoxicity assay. The format is cell-based. The conditions noted are these: Homo sapiens. The method, then:
as §1, §2

The next series relates to Leukemia SUP B15. Nature of the series: MTT cytotoxicity assay. The format is cell-based. The note with it: Homo sapiens. How it is done: as §1, §2
The next series has as its system Leukemia CCRF-CEM. The series can be described thus: MTT cytotoxicity assay. The format is cell-based. The conditions noted are these: Homo sapiens. The method, then: as §1, §2
The nature of series [6]: single-dose pharmacokinetic evaluation in rats. The format is in vivo, rat. The method, then: COH20 was injected into three male rats at 1 mg/kg for single-dose pharmacokinetic evaluation. […] More detailed pharmacokinetic studies will be performed with various dosages of COH20 to establish parameters such as clearance, bioavailability, and tissue/plasma partition coefficients.
Pharmacokinetic evaluation was performed on COH29 using the same techniques, with COH29 administered at a dosage of 25 mg/kg.

For series [7], the system named is NCI 60 human cancer cell lines. Nature of the series: MTT cytotoxicity assay, panel of human cancer cell lines. It counts as cell-based. How it is done:
as §1, §2

A further series has as its system KBHURs. The series can be described thus: in vitro cytotoxicity assay, HU-resistant clone. It counts as cell-based, human. The conditions noted are these: overexpresses RRM2. The method, then:
as §1
In vitro cytotoxicity assays were repeated using KBHURs, an HU-resistant clone derived from KB cells that overexpresses RRM2. […] Similar experiments will be repeated using the gemcitabine resistant cell line KBGem, which also overexpresses RRM2.

The next series has as its system intracellular RR. Nature of the series: intracellular RR activity in lysates of treated KB cells. The note with it: KB cells treated with 10 μM. It counts as cell-based, human. The method, then:
To confirm that the ability of COH20 to inhibit RR activity was not specific to recombinant RR, an assay was performed testing the effect of COH20 on intracellular RR. KB cells treated with 10 μM COH20 were lysed, and protein was extracted in a high salt buffer and passed through a G25 SEPHADEX® column to remove small molecules such as dNTP. The eluate was mixed with [^3H]CDP in reaction buffer to monitor RR activity. Treatment with COH20 decreased intracellular RR activity by approximately 50% (FIG. 7).

The test system of series [8] is REH, MOLT-4, LNCaP and KB cancer cell lines. The series can be described thus: MTT cytotoxicity assay, cancer cell lines together. The format is cell-based, human. The method, then:
as §1

Where [9] appears, read: RR activity, Table 1, read-out: IC50 ± S.D.
[10] abbreviates: Homo sapiens, MOLT-4, 72 hours, Table 3, read-out: IC50 MOLT-4.
Setting [11] is: rats, 25 mg/kg, individual analysis 1-3.

Several values for one entry are separate records, joined by “and”; a condition that tells them apart may be missing. Equal entries are not always repeated. Where two headings read alike, the source gives them in different places.

Sequence of recombinant RRM1/RRM2 complex (P31350 whole entry, one chain of several): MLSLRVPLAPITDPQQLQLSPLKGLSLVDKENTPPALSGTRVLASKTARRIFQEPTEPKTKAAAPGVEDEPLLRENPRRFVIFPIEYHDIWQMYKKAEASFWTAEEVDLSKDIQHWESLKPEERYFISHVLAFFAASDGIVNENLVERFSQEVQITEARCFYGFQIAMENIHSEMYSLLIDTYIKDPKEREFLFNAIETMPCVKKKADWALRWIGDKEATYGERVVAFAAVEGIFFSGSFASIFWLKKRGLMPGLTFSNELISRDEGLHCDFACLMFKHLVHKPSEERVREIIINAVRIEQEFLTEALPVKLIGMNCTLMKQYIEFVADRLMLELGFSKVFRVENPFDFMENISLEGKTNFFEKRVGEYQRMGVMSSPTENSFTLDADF

For the compound `O=C1C(Cl)=C(Nc2ccc(S(=O)(=O)Nc3ccccn3)cc2)C(=O)c2ccccc21` [NSC #45382], the “inhibition of native RRM1/RRM2 activity in vitro screen” value in [1] is recorded as no less than 80%.
Take `NC(=O)NO` [HU, hydroxyurea, reference compound]: the IC50 is greater than 1000 µM in series [2]; 148 ± 7.34 µM in series [1] (setting [9]); 165 µM in [3] (72 hours, Table 3, read-out: IC50 MOLT-4); 300 µM in series [4]; 32.8 µM in the series with human leukemia REH cells; 280 µM in series [5]. In addition, the “concentration exhibiting cytotoxicity towards KBMDR cells” value in the series with KBMDR was greater than 1000 µM.
With `O=C(Nc1nc(-c2ccc(O)c(O)c2)cs1)c1ccccc1` [COH4], the IC50 in series [2] (Homo sapiens, NHDF) is 52.6 µM; in series [1] (setting [9]), 15.3 ± 1.8 µM; in series [3] (setting [10]), 11.8 µM; in [4] (Homo sapiens, KB) it was 30.6 µM; in the series with human leukemia REH cells (Homo sapiens, REH) it was 20.6 µM; in series [5] (Homo sapiens, LNCaP), 23 µM.
As to `O=C(Nc1nc(-c2ccc(O)c(O)c2)c(-c2ccccc2)s1)c1ccc(O)c(O)c1` [COH29], the IC50 was 2.5 µM in [3] (Homo sapiens, MOLT-4, Table 4, read-out: IC50 Leukemia MOLT-4); 2.6 µM in the series on Ovarian Cancer OV 90; 5 µM with Leukemia SUP B15; 2.8 µM in the series with Leukemia CCRF-CEM; less than 10 µM in series [7] (except colon cancer HT29, melanoma UACC-257, ovarian cancer NCI/ADR-RES, renal cancer CAKI-1, read-out: IC50 in all cell types tested). Besides, the AUC in [6] (rat, plasma, intravenous, 25 mg/kg, rats, 25 mg/kg, Avg. of triplicate, read-out: AUC) is 3480 ng·h/mL; in [6] (rat, plasma, intravenous, 25 mg/kg, rats, 25 mg/kg, individual analysis 1-3, read-out: AUC), 3670 ng·h/mL; in series [6] (setting [11]), 2861 ng·h/mL and 3918 ng·h/mL. Besides, the Cmax is 27600 ng/mL in series [6] (rat, plasma, intravenous, 25 mg/kg, rats, 25 mg/kg, Avg. of triplicate, read-out: Cmax); 31300 ng/mL in series [6] (rat, plasma, intravenous, 25 mg/kg, rats, 25 mg/kg, individual analysis 1-3, read-out: Cmax); 26000 ng/mL and 25600 ng/mL in [6] (setting [11]). In [6] (rat, plasma, intravenous, 25 mg/kg, rats, 25 mg/kg, Avg. of triplicate, read-out: T1/2 (converted)), the half-life is 2.67 h. For the same compound, the Vd in series [6] (rat, plasma, intravenous, 25 mg/kg, rats, 25 mg/kg, Avg. of triplicate, read-out: Vss) was 0.804 L/kg. The clearance was 122 mL/min/kg in [6] (rat, plasma, intravenous, 25 mg/kg, rats, Avg. of triplicate) and 114 mL/min/kg in series [6] (rat, plasma, intravenous, 25 mg/kg, rats, individual analysis 1-3). For the same compound, the Tmax in series [6] (rat, plasma, intravenous, rats, 25 mg/kg, individual analysis 1-3) stood at 1.8 min. For the same compound, in series [6] (setting [11]), the CL is 145.6 mL/min/kg and 106.4 mL/min/kg. Besides, the T1/2 in series [6] (setting [11]) is 0.4 h and 7.6 h and 0.03 h. Moreover, the Vss in series [6] (setting [11]) was 1.185 L/kg and 0.576 L/kg and 0.653 L/kg. Besides, in [6] (rats, i.v. bolus), the AUC dose dependence result is recorded as “dose-dependent manner”. Also, the 50% growth inhibitory concentration (GI50) in [7] (except HT29, UACC-257, NCI/ADR-RES, CAKI-1) is less than 10 µM.
With `O=C(Nc1nc(-c2ccc(O)c(O)c2)cs1)c1ccc(O)c(O)c1` [COH20], in the series with KBHURs, the “cytotoxicity to KBHURs (in words)” value is listed as “cytotoxic to KBHURs at significantly lower concentrations than the other RR inhibitors tested”. The IC50 in series [2] (Homo sapiens, NHDF) amounted to 82.8 µM; in [1] (setting [9]) it was 9.3 ± 2.3 µM; in [1] (Table 2, no added Fe, read-out: IC50 ± S.D. RRM1/RRM2), 9.31 ± 2.3 µM; in [3] (setting [10]) it was 5.26 µM; in series [4] (Homo sapiens, KB) it was 9.25 µM; in the series with human leukemia REH cells (Homo sapiens, REH) it was 2.54 µM. For the same compound, the IC50 in [5] (Homo sapiens, LNCaP) is 8.49 µM. Besides, in [1], the “inhibition of the recombinant RRM1/RRM2 complex in vitro” value was 90.2%. Besides, the “concentration exhibiting cytotoxicity towards KBMDR cells” value in the series with KBMDR is 80 µM. Besides, in the series on KBMDR (overexpresses the MDR pump), the “cytotoxicity to KBMDR (in words)” value is “at lower concentrations than 3-AP or HU”. In the series on intracellular RR, the “decrease of intracellular RR activity” value is “approximately 50%”. The half-life in series [6] (male, rat, plasma, other: injected, 1 mg/kg, three male rats, 1 mg/kg, plasma, read-out: terminal half-life (T1/2) (converted)) was roughly 5.5 h. Further, in [8], the “concentration cytotoxic / growth inhibiting to the cancer cell lines” value is recorded as “less than 10 μM”.
For `NC(=S)NN=Cc1ncccc1N` [Compound 3-AP, 3-aminopyridine-2-carboxaldehyde thiosemicarbazone, reference compound], the IC50 in series [2] (Homo sapiens, NHDF) was 7.35 µM; in [1] (setting [9]), 1.2 ± 0.13 µM; in [3] (setting [10]) it was 1.21 µM; in [4] (Homo sapiens, KB), 1.98 µM; in the series with human leukemia REH cells (Homo sapiens, REH), 1.42 µM; in [5] (Homo sapiens, LNCaP) it was 1.75 µM. Moreover, the “concentration exhibiting cytotoxicity towards KBMDR cells” value in the series on KBMDR came out at 200 µM.
Turning to `Cl.O=c1oc2ccccc2c(O)c1C=Nc1nc(-c2ccc(O)c(O)c2)cs1` [NSC #659390], in [1], the “inhibition of native RRM1/RRM2 activity in vitro screen” value is reported as no less than 80%.

These data come from patent US10155732B2, “Ribonucleotide reductase inhibitors and methods of use” (City of Hope, priority 2012, dated 2018).
